Values quoted from earlier work, collected in US4801604A (priority 1987, dated 1989).

Settings: phenytoin and structurally related drugs

For `O=C1NC(=O)C(c2ccccc2)(c2ccccc2)N1` [phenytoin], the “Side effects (in words)” value is listed as “hyperplasia of the gums, cerebellar degeneration, gastric distress and serious skin rashes”.
